Values belong to the molecule of their own block, whether it stands above or below them.
Test system: 885724-159-R-J1-PDC complex spheroid viability
Test: Anticancer human tumor 885724-159-R-J1-PDC patient-derived pancreatic adenocarcinoma cell line growth inhibition [GQUAD]
Conditions: for IC50: curve of first compound; for viability, T/C: stronger effect = lower value
Method in brief: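 Tumor cells were grown as complex spheroids with HUVEC endothelial cells and mesenchymal stem cells as stroma. G-quadruplex stabilizers were combined with targeted agents over half-log dilutions from near the clinical Cmax, or from 10 microM.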

[1] = second compound 0.0316 µM, first compound 0.000999 µM
[2] = second compound 0.0316 µM, first compound 0.00316 µM
[3] = second compound 0.0316 µM, first compound 0.00999 µM
[4] = second compound 0.0316 µM, first compound 0.0316 µM
[5] = second compound 0.0316 µM, first compound 0.0999 µM
[6] = second compound 0.0316 µM, first compound 0.316 µM
[7] = second compound 0.1 µM, first compound 0.000999 µM
[8] = second compound 0.1 µM, first compound 0.00316 µM
[9] = second compound 0.1 µM, first compound 0.00999 µM
[10] = second compound 0.1 µM, first compound 0.0316 µM
[11] = second compound 0.1 µM, first compound 0.0999 µM
[12] = second compound 0.1 µM, first compound 0.316 µM
[13] = second compound 0.316 µM, first compound 0.000999 µM
[14] = second compound 0.316 µM, first compound 0.00316 µM
[15] = second compound 0.316 µM, first compound 0.00999 µM
[16] = second compound 0.316 µM, first compound 0.0316 µM
[17] = second compound 0.316 µM, first compound 0.0999 µM
[18] = second compound 0.316 µM, first compound 0.316 µM
[19] = second compound 1 µM, first compound 0.000999 µM
[20] = second compound 1 µM, first compound 0.00316 µM
[21] = second compound 1 µM, first compound 0.00999 µM
[22] = second compound 1 µM, first compound 0.0316 µM
[23] = second compound 1 µM, first compound 0.0999 µM
[24] = second compound 1 µM, first compound 0.316 µM
[25] = second compound 3.16 µM, first compound 0.000999 µM
[26] = second compound 3.16 µM, first compound 0.00316 µM
[27] = second compound 3.16 µM, first compound 0.00999 µM
[28] = second compound 3.16 µM, first compound 0.0316 µM
[29] = second compound 3.16 µM, first compound 0.0999 µM
[30] = second compound 3.16 µM, first compound 0.316 µM
[31] = second compound 10 µM, first compound 0.000999 µM
[32] = second compound 10 µM, first compound 0.00316 µM
[33] = second compound 10 µM, first compound 0.00999 µM
[34] = second compound 10 µM, first compound 0.0316 µM
[35] = second compound 10 µM, first compound 0.0999 µM
[36] = second compound 10 µM, first compound 0.316 µM
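Also: spheroids exposed to agents for seven days before readout.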
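For viability, T/C in this document: percent of vehicle control viability where 100% = DMSO wells.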

- IC50 (second compound 0.0316 µM): > 0.316 µM
- IC50 (second compound 0.1 µM): > 0.316 µM
- IC50 (second compound 0.316 µM): > 0.316 µM
- IC50 (second compound 1 µM): > 0.316 µM
- IC50 (second compound 3.16 µM): > 0.316 µM
- IC50 (second compound 10 µM): > 0.316 µM
Compound: CC[C@@]1(O)C(=O)OCc2c1cc1n(c2=O)Cc2cc3c(CN(C)C)c(O)ccc3nc2-1 + Cc1cnc(CNC(=O)c2c(=O)c3ccc(N4CCCN(C)CC4)nc3n3c2sc2ccccc23)cn1
- viability, T/C [1]: 117%
- viability, T/C [2]: 95.5%
- viability, T/C [3]: 103%
- viability, T/C [4]: 106%
- viability, T/C [5]: 89.1%
- viability, T/C [6]: 65.5%
- viability, T/C [7]: 125%
- viability, T/C [8]: 98.7%
- viability, T/C [9]: 101%
- viability, T/C [10]: 103%
- viability, T/C [11]: 85.5%
- viability, T/C [12]: 75.2%
- viability, T/C [13]: 96.1%
- viability, T/C [14]: 104%
- viability, T/C [15]: 87.6%
- viability, T/C [16]: 95%
- viability, T/C [17]: 100%
- viability, T/C [18]: 70.1%
- viability, T/C [19]: 88.6%
- viability, T/C [20]: 84.1%
- viability, T/C [21]: 95.2%
- viability, T/C [22]: 80.3%
- viability, T/C [23]: 87.8%
- viability, T/C [24]: 70.3%
- viability, T/C [25]: 74.8%
- viability, T/C [26]: 69.5%
- viability, T/C [27]: 75%
- viability, T/C [28]: 75.9%
- viability, T/C [29]: 73.9%
- viability, T/C [30]: 64.5%
- viability, T/C [31]: 70.7%
- viability, T/C [32]: 81.1%
- viability, T/C [33]: 72.7%
- viability, T/C [34]: 74.2%
- viability, T/C [35]: 80%
- viability, T/C [36]: 69.1%

- IC50 (second compound 0.0316 µM): 0.0817 µM
- IC50 (second compound 0.1 µM): 0.0418 µM
- IC50 (second compound 0.316 µM): 0.0483 µM
- IC50 (second compound 1 µM): 0.057 µM
- IC50 (second compound 3.16 µM): 0.033 µM
- IC50 (second compound 10 µM): 0.0326 µM
Compound: CCc1c2c(nc3ccc(O)cc13)-c1cc3c(c(=O)n1C2)COC(=O)[C@]3(O)CC + Cc1cnc(CNC(=O)c2c(=O)c3ccc(N4CCCN(C)CC4)nc3n3c2sc2ccccc23)cn1
- viability, T/C [1]: 101%
- viability, T/C [2]: 97.1%
- viability, T/C [3]: 75.1%
- viability, T/C [4]: 66.2%
- viability, T/C [5]: 54.1%
- viability, T/C [6]: 9.27%
- viability, T/C [7]: 114%
- viability, T/C [8]: 90.5%
- viability, T/C [9]: 68.8%
- viability, T/C [10]: 60.4%
- viability, T/C [11]: 45.2%
- viability, T/C [12]: 7.81%
- viability, T/C [13]: 93.2%
- viability, T/C [14]: 82.7%
- viability, T/C [15]: 72.2%
- viability, T/C [16]: 54.4%
- viability, T/C [17]: 42.4%
- viability, T/C [18]: 4.89%
- viability, T/C [19]: 77.2%
- viability, T/C [20]: 78.6%
- viability, T/C [21]: 63.8%
- viability, T/C [22]: 61.3%
- viability, T/C [23]: 41.7%
- viability, T/C [24]: 0.87%
- viability, T/C [25]: 73.9%
- viability, T/C [26]: 72.1%
- viability, T/C [27]: 57.8%
- viability, T/C [28]: 48.3%
- viability, T/C [29]: 36.7%
- viability, T/C [30]: 0.45%
- viability, T/C [31]: 66.5%
- viability, T/C [32]: 69.6%
- viability, T/C [33]: 53.6%
- viability, T/C [34]: 54.8%
- viability, T/C [35]: 30.7%
- viability, T/C [36]: 0.45%

— PubChem BioAssay AID2060502 (Molecular Pharmacology Branch, DTP, NCI, 2025)
